Drawing on patent publication US5446058A, “(Fused) benz(thio)amides” (Ono Pharmaceutical Co., Ltd., priority 1984, dated 1995), this text covers IC50 and LD50 for 23 compounds.

For one data set, the system named is LTD4. In words: Antagonistic activity on LTD4 in vitro (contraction of isolated ilem in a Magnus tube). As to conditions: antagonism of LTD4, guinea pig ilem, 5×10^-9 g/ml LTD4, 37° C.; read-out: IC50 (Table III, comparison of activity by alkylene chain change). The procedure:
Antagonistic activity of the compounds of the present invention on LTD4 were measured by the following method.
A segment of ilem (2.5 cm) was removed from guinea pig 300-400 g and suspended in a Magnus tube containing Tyrodes solution. The tube was maintained at 37° C. and aerated with 95% O2 -5% CO2. After stabilizing from 30 mins, 5×10^-9 g/ml of LTD4 was added to the Magnus tube. Contraction length at the time and contraction lengths when the compounds of the present invention were challenged at some concentrations were measured, and the IC50 value were calculated.
As usually defined, the IC50 is the point on the concentration scale where inhibition reaches its midpoint. For `CCCCCc1ccc(CC(=O)Nc2cccc3c2OC(c2nn[nH]n2)CO3)cc1` (centres unmarked), the IC50 came out at 8300 nM.
For the compound `CCCCCc1ccc(CCC(=O)Nc2cccc3c2OC(c2nn[nH]n2)CO3)cc1` (centres unmarked), the concentration for half-maximal inhibition (IC50) stood at 660 nM.
Still for that read-out and setting: next, `CCCc1ccc(/C=C/C=C/C(=O)Nc2cccc3c2OC(c2nn[nH]n2)CO3)cc1` (centres unmarked): 74 nM.
The same measure, in the same setting: next, `CCCCCCCCCCCCC/C=C/C(=O)Nc1cccc2c1OC(c1nn[nH]n1)CO2` (centres unmarked): 20000 nM; `CCCCCc1ccc(C(=O)Nc2cccc3c2OC(c2nn[nH]n2)CO3)cc1` (centres unmarked) [drawing 40]: 2600 nM.

The same data set, now with this note: antagonism of LTD4, guinea pig ilem, 5×10^-9 g/ml LTD4, 37° C.; read-out: IC50 (Table IV, comparison of activity by skeleton structure change (1)).
For `CCCCCc1ccc(/C=C/C(=O)Nc2cccc3c2OC(c2nn[nH]n2)CO3)cc1` (centres unmarked), the IC50 came to 370 nM.
For the compound `CCCCCc1ccc(/C=C/C(=O)Nc2cccc3c(=O)cc(-c4nn[nH]n4)oc23)cc1`, the IC50 worked out at 30 nM.
On the same count and under the same terms, under `CCCCCc1ccc(/C=C/C(=O)Nc2cccc3c2SC(c2nn[nH]n2)CS3)cc1` (centres unmarked) stands 690 nM.

Staying with this data set, now noted: antagonism of LTD4, guinea pig ilem, 5×10^-9 g/ml LTD4, 37° C.; read-out: IC50 (Table V, comparison of activity by skeleton structure change (2)).
Turning to `CCCCCc1ccc(C(=O)Nc2cccc3c(=O)cc(-c4nn[nH]n4)oc23)cc1`, the IC50 stood at 180 nM.
On the same count and under the same terms, next, `CCCCCc1ccc(C(=O)Nc2cccc3c2OC(C(=O)O)CO3)cc1` (centres unmarked): 1200 nM; `CCCCCc1ccc(C(=O)Nc2cccc3c2OC(c2nn[nH]n2)CO3)cc1` (centres unmarked) [drawing 49]: 2600 nM.

Staying with this data set, now noted: antagonism of LTD4, guinea pig ilem, 5×10^-9 g/ml LTD4, 37° C.; read-out: IC50 (Table VI, comparison of activity by skeleton structure change (3)).
On to `CCCCCCOc1ccc(C(=O)Nc2cccc3cc(-c4nn[nH]n4)oc23)cc1` [1 (501)], for which the IC50 amounted to 76 nM.
As to `CCCCCCOc1ccc(C(=O)Nc2cccc3c2OC(c2nn[nH]n2)C3)cc1` (centres unmarked) [1 (505)], the IC50 was found to be 205 nM.
Take `O=C(Nc1cccc2ccc(-c3nn[nH]n3)cc12)c1ccc(OCCCCc2ccccc2)cc1` [1 (514)]: the IC50 turned out to be 4.6 nM.
On the same count and under the same terms, next, `O=C(Nc1cccc2ccc(-c3nn[nH]n3)nc12)c1ccc(OCCCCc2ccccc2)cc1` [1 (516)]: 2.6 nM; `C=CCCCC=CCOc1ccc(C(=O)Nc2cccc3c2OC(c2nn[nH]n2)CCO3)cc1` (centres unmarked) [1 (518)]: 33 nM; `O=C(Nc1cccc2c1OC(c1nn[nH]n1)CC2)c1ccc(OCCCCc2ccccc2)cc1` (centres unmarked) [1 (521)]: 1.3 nM.

Tested on in another data set: not listed separately
In words: Acute toxicity (LD50), intravenous, male mice. Particulars: mouse, in vivo, intravenous administration.
By LD50 is commonly meant the dose expected to kill half of the subjects tested. A high value points to a less toxic substance. On to `O=C(Nc1cccc2c1OC(c1nnn[nH]1)CO2)c1ccc(OCCCCc2ccccc2)cc1` (centres unmarked) [1(76)], for which the LD50 is > 1000 mg/kg.
Same read-out and setting: next, `C=CCCC/C=C/COc1ccc(C(=O)Nc2cccc3c(=O)cc(-c4nn[nH]n4)oc23)cc1` [1(212)]: > 1000 mg/kg; `O=C(Nc1cccc2c(=O)cc(-c3nnn[nH]3)oc12)c1ccc(OCCCCc2ccccc2)cc1` [1(230)]: > 1000 mg/kg; `C=CCCC/C=C/COc1ccc(C(=O)Nc2cc(C)cc3c(=O)cc(-c4nn[nH]n4)oc23)cc1` [1(247)]: > 1000 mg/kg.

The target of the next data set is 5α-reductase. Kind of data set: Inhibitory activity on 5α-reductase in vitro. The format is biochemical. As to conditions: [4-14C]testosterone 5 μM, NADPH 5×10^-3 M, pH 7.4, 37° C., 60 mins; read-out: IC50, inhibitory activity on 5α-reductase (Table VII). The procedure:
Inhibitory activity of the compounds of the present invention on 5α-reductase was measured by the following method.
Inhibitory activity of the compounds of the present invention on 5α-reductase (IC50) in vitro was measured by the following method.
Compounds tested were incubated with radioactive [4-^14 C]testosterone (5 μM) and NADPH (5×10^-3 M) in the medium containing 5α-reductase, 0.09M Hepes (pH 7.4) and 0.22M sucrose at 37° C. for 60 mins. The reaction was stopped by adding solution of chloroform-methanol (1:2). The reaction mixture was centrifuged and the supernatant was separated by thin layer chromatography on silica gel using chloroform-methanol-acetic acid (99.2:0.6:0.2) as a developing solvent. Radioactivity of formed 5α-dihydrotestosterone was measured by TLC scanner. The values of IC50 were determined by the inhibition percents of 5α-reductase activity measured by the above procedure (see Endocrinal, Japon., 18, 179 (1971).).
As for `CCCCCc1ccc(C(C)=CC(=O)Nc2ccccc2SCCCC(=O)O)cc1` [4(206)], the IC50 was found to be 4 µM.
The same measure, in the same setting: under `CCCCCc1ccc(C=CC(=O)Nc2ccccc2OCCCC(=O)O)cc1` [6(1)] stands 5 µM.
